Patent US9493440B2, “Compounds inhibiting leucine-rich repeat kinase enzyme activity” (Merck Sharp & Dohme Corp., priority 2013, dated 2016)

Experiments:
Assay type in all cases: biochemical
Conditions in all cases: 1 μM of the Example
[1] = target: IRAK1 (Homo sapiens (Human), UniProt P51617); test: Kinase selectivity, Adapta assay platform
[2] = target: DYRK1A (Homo sapiens (Human), UniProt Q13627); test: Kinase selectivity, Z'-LYTE assay platform
[3] = target: AURKB (Aurora B) (Homo sapiens (Human), UniProt Q96GD4); test: Kinase selectivity, Z'-LYTE assay platform
Chain of AURKB (Aurora B) (Q96GD4 whole entry): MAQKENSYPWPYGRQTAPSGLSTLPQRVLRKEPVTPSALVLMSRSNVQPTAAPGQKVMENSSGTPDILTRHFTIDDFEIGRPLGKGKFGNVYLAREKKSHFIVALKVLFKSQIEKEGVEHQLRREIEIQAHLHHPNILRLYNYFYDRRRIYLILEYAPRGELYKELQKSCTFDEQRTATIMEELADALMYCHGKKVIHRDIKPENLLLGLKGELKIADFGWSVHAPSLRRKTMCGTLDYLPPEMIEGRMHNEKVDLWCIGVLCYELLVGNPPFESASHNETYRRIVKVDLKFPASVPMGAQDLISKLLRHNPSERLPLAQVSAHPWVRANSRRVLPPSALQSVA

[4] = target: CDK1/cyclin B (Homo sapiens (Human), UniProt P06493); test: Kinase selectivity, Z'-LYTE assay platform
Chain of CDK1/cyclin B (P06493 whole entry): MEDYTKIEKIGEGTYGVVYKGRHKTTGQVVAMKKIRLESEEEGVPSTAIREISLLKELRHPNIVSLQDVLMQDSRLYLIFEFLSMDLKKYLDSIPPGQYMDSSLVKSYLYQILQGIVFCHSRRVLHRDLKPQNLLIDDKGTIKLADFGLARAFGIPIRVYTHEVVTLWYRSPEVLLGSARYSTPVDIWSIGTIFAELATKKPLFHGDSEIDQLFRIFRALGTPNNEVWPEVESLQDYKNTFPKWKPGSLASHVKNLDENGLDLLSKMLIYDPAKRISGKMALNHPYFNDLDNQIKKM
Chain of CDK1/cyclin B (P14635 whole entry partner): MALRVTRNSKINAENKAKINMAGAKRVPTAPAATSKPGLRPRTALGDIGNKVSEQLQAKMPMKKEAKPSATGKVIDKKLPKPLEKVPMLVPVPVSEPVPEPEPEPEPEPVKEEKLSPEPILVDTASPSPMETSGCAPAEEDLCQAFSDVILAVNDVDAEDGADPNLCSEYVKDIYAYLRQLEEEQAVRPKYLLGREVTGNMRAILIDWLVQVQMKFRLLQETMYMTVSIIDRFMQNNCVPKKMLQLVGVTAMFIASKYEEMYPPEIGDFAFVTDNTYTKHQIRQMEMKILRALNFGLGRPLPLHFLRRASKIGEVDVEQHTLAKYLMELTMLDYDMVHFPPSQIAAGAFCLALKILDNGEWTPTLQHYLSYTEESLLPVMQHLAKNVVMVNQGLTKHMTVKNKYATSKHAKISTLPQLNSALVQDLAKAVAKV

[5] = target: MAPK8 (JNK1) (Homo sapiens (Human), UniProt P45983); test: Kinase selectivity, Z'-LYTE assay platform
Chain of MAPK8 (JNK1) (P45983 whole entry): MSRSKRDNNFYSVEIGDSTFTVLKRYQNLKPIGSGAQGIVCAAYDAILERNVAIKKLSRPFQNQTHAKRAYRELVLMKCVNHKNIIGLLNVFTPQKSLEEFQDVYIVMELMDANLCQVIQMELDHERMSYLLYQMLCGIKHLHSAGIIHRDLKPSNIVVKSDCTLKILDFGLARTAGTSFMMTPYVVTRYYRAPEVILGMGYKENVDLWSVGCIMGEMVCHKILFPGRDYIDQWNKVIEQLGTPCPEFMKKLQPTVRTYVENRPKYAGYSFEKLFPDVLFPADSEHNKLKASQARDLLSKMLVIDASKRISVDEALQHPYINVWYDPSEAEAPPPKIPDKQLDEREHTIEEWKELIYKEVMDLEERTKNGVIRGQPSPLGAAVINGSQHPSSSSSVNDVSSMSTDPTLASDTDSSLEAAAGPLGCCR

[6] = target: BRAF V599E (Homo sapiens (Human), UniProt P15056, V600E); test: Kinase selectivity, Z'-LYTE assay platform
Chain of BRAF V599E (P15056 416-766 V600E limits assumed): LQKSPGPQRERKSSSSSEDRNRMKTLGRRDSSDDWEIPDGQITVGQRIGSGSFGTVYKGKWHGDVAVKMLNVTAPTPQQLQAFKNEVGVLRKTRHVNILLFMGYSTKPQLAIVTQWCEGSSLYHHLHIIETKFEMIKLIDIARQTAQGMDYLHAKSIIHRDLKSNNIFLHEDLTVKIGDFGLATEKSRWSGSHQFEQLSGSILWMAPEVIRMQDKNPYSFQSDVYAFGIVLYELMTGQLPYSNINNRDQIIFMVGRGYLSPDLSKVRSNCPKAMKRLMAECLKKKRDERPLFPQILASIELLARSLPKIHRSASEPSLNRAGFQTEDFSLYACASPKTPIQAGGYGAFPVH

[7] = target: CLK2 (Homo sapiens (Human), UniProt P49760); test: Kinase selectivity, Z'-LYTE assay platform
Chain of CLK2 (P49760 whole entry): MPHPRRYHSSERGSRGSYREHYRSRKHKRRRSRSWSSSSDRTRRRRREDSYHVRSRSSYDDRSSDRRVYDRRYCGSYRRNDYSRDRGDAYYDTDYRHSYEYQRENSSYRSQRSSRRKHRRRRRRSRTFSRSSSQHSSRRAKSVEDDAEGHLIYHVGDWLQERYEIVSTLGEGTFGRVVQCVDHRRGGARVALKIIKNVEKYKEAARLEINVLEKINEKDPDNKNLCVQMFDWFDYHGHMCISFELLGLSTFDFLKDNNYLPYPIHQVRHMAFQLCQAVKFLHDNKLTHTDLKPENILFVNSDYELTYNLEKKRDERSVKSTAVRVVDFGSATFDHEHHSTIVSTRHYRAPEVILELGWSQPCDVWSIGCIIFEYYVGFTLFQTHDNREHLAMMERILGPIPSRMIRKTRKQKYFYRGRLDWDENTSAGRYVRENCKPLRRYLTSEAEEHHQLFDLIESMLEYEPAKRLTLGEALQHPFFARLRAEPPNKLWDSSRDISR

[8] = target: CHEK2 (CHK2) (Homo sapiens (Human), UniProt O96017); test: Kinase selectivity, Z'-LYTE assay platform
[9] = target: MAPK1 (ERK2) (Homo sapiens (Human), UniProt P28482); test: Kinase selectivity, Z'-LYTE assay platform
Chain of MAPK1 (ERK2) (P28482 whole entry): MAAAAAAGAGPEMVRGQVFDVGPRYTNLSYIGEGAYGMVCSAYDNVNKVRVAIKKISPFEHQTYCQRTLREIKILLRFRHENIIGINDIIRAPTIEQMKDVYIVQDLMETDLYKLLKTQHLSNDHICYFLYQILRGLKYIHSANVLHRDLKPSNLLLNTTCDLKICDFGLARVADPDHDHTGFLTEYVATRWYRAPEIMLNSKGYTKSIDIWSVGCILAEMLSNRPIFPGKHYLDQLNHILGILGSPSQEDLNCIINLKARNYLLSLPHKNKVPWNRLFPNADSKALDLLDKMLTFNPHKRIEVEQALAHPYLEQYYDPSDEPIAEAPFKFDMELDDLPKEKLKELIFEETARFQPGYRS

[10] = target: JAK3 (Homo sapiens (Human), UniProt P52333); test: Kinase selectivity, Z'-LYTE assay platform
Chain of JAK3 (P52333 whole entry): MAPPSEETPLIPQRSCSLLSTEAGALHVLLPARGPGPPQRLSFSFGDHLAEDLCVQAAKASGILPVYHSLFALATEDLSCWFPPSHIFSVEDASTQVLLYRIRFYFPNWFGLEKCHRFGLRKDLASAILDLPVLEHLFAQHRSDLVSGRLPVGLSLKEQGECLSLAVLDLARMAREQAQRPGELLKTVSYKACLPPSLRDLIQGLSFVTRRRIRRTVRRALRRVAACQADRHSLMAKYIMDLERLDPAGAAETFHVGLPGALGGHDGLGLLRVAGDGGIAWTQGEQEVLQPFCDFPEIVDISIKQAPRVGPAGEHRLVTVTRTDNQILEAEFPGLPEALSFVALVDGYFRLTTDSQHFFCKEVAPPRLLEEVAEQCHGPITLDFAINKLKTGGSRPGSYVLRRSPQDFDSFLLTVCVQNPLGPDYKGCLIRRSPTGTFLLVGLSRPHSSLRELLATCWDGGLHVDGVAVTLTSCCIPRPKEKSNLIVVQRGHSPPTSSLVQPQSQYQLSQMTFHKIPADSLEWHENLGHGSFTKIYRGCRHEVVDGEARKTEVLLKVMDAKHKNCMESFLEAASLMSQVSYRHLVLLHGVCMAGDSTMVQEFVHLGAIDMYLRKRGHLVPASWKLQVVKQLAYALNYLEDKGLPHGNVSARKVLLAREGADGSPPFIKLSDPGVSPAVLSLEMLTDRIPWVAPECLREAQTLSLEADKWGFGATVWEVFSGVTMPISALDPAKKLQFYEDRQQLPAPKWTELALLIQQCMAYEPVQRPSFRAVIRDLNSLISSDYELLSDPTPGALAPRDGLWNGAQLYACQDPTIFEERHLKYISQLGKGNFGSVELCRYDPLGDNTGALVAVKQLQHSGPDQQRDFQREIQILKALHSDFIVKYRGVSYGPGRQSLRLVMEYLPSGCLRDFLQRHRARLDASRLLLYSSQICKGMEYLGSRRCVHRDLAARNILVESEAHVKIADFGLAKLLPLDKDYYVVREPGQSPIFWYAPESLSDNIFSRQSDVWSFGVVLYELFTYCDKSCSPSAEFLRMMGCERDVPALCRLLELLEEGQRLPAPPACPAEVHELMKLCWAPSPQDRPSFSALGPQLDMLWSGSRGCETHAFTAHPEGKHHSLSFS

Chain of IRAK1 (P51617 whole entry): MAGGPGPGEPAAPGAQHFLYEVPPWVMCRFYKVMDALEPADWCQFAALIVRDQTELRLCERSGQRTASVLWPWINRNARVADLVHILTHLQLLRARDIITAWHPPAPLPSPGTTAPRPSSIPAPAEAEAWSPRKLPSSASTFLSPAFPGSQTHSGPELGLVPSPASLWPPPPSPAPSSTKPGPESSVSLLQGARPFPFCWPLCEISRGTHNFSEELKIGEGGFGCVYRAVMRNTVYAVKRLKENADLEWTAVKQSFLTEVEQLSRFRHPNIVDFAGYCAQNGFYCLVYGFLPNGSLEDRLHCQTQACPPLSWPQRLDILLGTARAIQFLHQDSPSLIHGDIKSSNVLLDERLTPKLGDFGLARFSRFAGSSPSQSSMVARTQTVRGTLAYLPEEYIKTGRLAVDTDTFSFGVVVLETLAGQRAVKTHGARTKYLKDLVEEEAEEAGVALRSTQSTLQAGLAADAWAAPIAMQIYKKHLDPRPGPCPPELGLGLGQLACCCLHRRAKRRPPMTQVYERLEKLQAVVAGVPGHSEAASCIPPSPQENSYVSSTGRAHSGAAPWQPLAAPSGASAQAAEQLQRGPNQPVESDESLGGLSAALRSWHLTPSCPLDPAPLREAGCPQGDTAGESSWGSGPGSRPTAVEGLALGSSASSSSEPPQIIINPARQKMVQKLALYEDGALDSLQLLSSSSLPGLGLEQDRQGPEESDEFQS

SMILES | percent inhibition IRAK1 [1] [%] | percent inhibition DYRK1A [2] [%] | percent inhibition AURKB (Aurora B) [3] [%] | percent inhibition CDK1/cyclin B [4] [%] | percent inhibition MAPK8 (JNK1) [5] [%] | percent inhibition BRAF V599E [6] [%] | percent inhibition CLK2 [7] [%] | percent inhibition CHEK2 (CHK2) [8] [%] | percent inhibition MAPK1 (ERK2) [9] [%] | percent inhibition JAK3 [10] [%]
CC1(Oc2ccc3[nH]nc(-c4cc(N5CCOCC5)ncn4)c3c2)CC1 [Example 1] | 23 | 16 | 28 | 10 | 56 | 24 | 57 | 21 | 8 | 7
C[C@@H]1CN(c2cc(-c3n[nH]c4ccc(OC5(C)CC5)cc34)ncn2)C[C@H](C)O1 [Example 51] | −15 | 4 | 16 | 1 | 0 | 10 | 55 | 15 | −4 | 7
CO[C@H]1CCN(c2cc(-c3n[nH]c4ccc(OC5(C)CC5)cc34)ncn2)C1 [Example 12] | 31 | 5 | 37 | 43 | 40 | 11 | 53 | 17 | 10 | 12
